In the assay the target is T1, FGFR1 (Homo sapiens, UniProt P11362).
T1 construct: purchased Millipore
The assay is described as follows: ELISA kinase assay, FGFR1 enzymatic activity. Format: biochemical. To be noted: for inhibition at 10 µM / inhibition at 5 µM / inhibition at 0.01 µM / inhibition at 0.1 µM / inhibition at 1 µM: mean of two separate experiments; for inhibition at 0.01 µM: 0.01 μM (10 nM). The protocol:
The effects of compounds on the activities of indicated (FGFR1 and c-Met) kinases were determined using enzyme-linked immunosorbent assays (ELISAs) with purified recombinant proteins. Briefly, 20 μg/mL poly (Glu, Tyr)4:1 (Sigma, St. Louis, MO, USA) was precoated in 96-well plates as a substrate. A 50-μL aliquot of 10 μmol/L ATP solution diluted in kinase reaction buffer (50 mmol/L HEPES (pH 7.4), 50 mmol/L MgCl2, 0.5 mmol/L MnCl2, 0.2 mmol/L Na3VO4, and 1 mmol/L DTT) was added to each well; 1 μL of various concentrations of compounds diluted in 1% DMSO (v/v) (Sigma) were then added to each reaction well. DMSO (1%, v/v) was used as the negative control. The kinase reaction was initiated by the addition of purified tyrosine kinase proteins FGFR1 (Millipore, Darmstadt, Germany) or c-Met (Millipore) diluted in 49 μL of kinase reaction buffer. After incubation for 60 min at 37 °C, the plate was washed three times with phosphate-buffered saline (PBS) containing 0.1% Tween 20 (T-PBS). Anti-phosphotyrosine (PY99) antibody (Sanra Cruz, Dallas, TX, USA) (100 μL; 1:500, diluted in 5 mg/mL bovine serum albumin (BSA) T-PBS) was then added. After a 30-min incubation at 37 °C, the plate was washed three times, and 100 μL of horseradish peroxidase-conjugated goat anti-mouse IgG (Calbiochem, Shanghai, China) (1:2000, diluted in 5 mg/mL BSA T-PBS) was added. The plate was then incubated at 37 °C for 30 min, and washed three times. A 100-μL aliquot of a solution containing 0.03% H2O2 and 2 mg/mL o-phenylenediamine in 0.1 mol/L citrate buffer (pH 5.5) was added. The reaction was terminated by the addition of 50 μL of 2 mol/L H2SO4 as the color changed, and the plate was analyzed using a multi-well spectrophotometer (SpectraMAX 190, Molecular Devices, Palo Alto, CA, USA) at 490 nm. The inhibition rate (%) was calculated using the following equation:IR = [1 − (A490/A490control)] × 100%.(1) where IR, A490, and A490control are the inhibition rate, the absorbance value of the tested compound at 490 nm, and the absorbance value of the negative control compound at 490 nm, respectively. The IC50 values were calculated from the inhibition curves in two separate experiments.
On the technique in general: In an ELISA, binding on a coated surface is turned into a signal by an enzyme label.

SMILES strings stand for the structures.

T1 sequence (P11362 22-822): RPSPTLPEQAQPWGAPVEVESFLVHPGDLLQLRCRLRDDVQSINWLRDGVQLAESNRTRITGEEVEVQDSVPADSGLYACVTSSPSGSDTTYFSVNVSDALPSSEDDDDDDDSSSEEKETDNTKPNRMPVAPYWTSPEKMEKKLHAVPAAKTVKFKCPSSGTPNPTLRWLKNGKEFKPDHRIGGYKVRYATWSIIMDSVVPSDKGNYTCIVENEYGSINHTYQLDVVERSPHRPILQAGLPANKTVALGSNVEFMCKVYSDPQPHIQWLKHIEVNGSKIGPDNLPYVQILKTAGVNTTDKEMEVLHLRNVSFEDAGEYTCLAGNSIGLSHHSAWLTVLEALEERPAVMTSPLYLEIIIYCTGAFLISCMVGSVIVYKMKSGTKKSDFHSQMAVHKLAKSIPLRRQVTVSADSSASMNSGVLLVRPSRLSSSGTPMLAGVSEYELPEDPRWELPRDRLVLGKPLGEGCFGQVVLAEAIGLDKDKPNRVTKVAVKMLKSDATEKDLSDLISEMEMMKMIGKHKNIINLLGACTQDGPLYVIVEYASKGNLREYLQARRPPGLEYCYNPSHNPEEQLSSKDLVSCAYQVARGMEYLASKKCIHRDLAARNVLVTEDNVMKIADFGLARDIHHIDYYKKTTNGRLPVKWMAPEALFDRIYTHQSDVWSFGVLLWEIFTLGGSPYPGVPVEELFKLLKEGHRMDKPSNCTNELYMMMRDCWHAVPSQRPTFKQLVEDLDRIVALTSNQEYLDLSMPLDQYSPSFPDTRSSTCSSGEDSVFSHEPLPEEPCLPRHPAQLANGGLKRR

For orientation: inhibition means the share of the control response that was lost under treatment. A higher inhibition goes with a response far below the control. For `Cn1cc(-c2cnc3cnn(S(=O)(=O)c4c(Cl)nc5sccn45)c3c2)cn1` [Compound 5, 6-chloro-5-((6-(1-methyl-1H-pyrazol-4-yl)-1H-pyrazolo[4,3-b]pyridin-1-yl)sulfonyl)imidazo[2,1-b]thiazole], the inhibition at 10 µM is more than 50%.
`Cn1cc(-c2cnc3ccn(S(=O)(=O)c4c(Cl)nc5sccn45)c3n2)cn1` [Compound 9, 6-Chloro-5-((3-(1-methyl-1H-pyrazol-4-yl)-5H-pyrrolo[2,3-b]pyrazin-5-yl)sulfonyl)imidazo[2,1-b]thiazole] came in with an inhibition at 5 µM of 83.7% and an inhibition at 10 µM of 92.5%.
Molecule `Cn1cc(-c2cnc3ccn(S(=O)(=O)c4cnn5cccnc45)c3n2)cn1` [Compound 10, 3-(1-Methyl-1H-pyrazol-4-yl)-5-(pyrazolo[1,5-a]pyrimidin-3-ylsulfonyl)-5H-pyrrolo[2,3-b]pyrazine] came in with an inhibition at 5 µM of 77% and an inhibition at 10 µM of 91%.
The like results for `Cn1cnc(S(=O)(=O)n2ccc3ncc(-c4cnn(C)c4)nc32)c1` [Compound 11, 5-((1-Methyl-1H-imidazol-4-yl)sulfonyl)-3-(1-methyl-1H-pyrazol-4-yl)-5H-pyrrolo[2,3-b]pyrazine] were, in that order, 58.1% and 86%.
The like results for `Cn1cc(-c2cnc3ccn(S(=O)(=O)c4cn(CCF)cn4)c3n2)cn1` [Compound 12, 5-((1-(2-Fluoroethyl)-1H-imidazol-4-yl)sulfonyl)-3-(1-methyl-1H-pyrazol-4-yl)-5H-pyrrolo[2,3-b]pyrazine] were, in that order, 68.9% and 89%.
In turn, `O=S(=O)(c1cn(CCF)cn1)n1ccc2ncc(-c3cnn(C4CC4)c3)nc21` [Compound 14, 3-(1-Cyclopropyl-1H-pyrazol-4-yl)-5-((1-(2-fluoroethyl)-1H-imidazol-4-yl)sulfonyl)-5H-pyrrolo[2,3-b]pyrazine] came in with an inhibition at 0.01 µM of 4.7%, an inhibition at 0.1 µM of 2.2% and an inhibition at 1 µM of 2.8%. Also, the “FGFR1 activity (in words)” value (FGFR1 enzymatic activity, Table 3) is given as “lost the FGFR1 activity”.
In the case of `CC(=O)n1cc(-c2cnc3ccn(S(=O)(=O)c4cn(CCF)cn4)c3n2)cn1` [Compound 15, 1-(4-(5-((1-(2-fluoroethyl)-1H-imidazol-4-yl)sulfonyl)-5H-pyrrolo[2,3-b]pyrazin-3-yl)-1H-pyrazol-1-yl)ethan-1-one], the inhibition at 0.01 µM was found to be 35.9%, 0.1 µM produced 25.9% inhibition and the inhibition at 1 µM is 70.9%.
Consider `CCC(=O)n1cc(-c2cnc3ccn(S(=O)(=O)c4cn(CCF)cn4)c3n2)cn1` [Compound 16, 1-(4-(5-((1-(2-Fluoroethyl)-1H-imidazol-4-yl)sulfonyl)-5H-pyrrolo[2,3-b]pyrazin-3-yl)-1H-pyrazol-1-yl)propan-1-one], for which 0.01 µM produced 15.1% inhibition, the inhibition at 0.1 µM is 55.8% and the inhibition at 1 µM was 94.6%.
The matching figures for `CC(=O)Cn1cc(-c2cnc3ccn(S(=O)(=O)c4cn(CCF)cn4)c3n2)cn1` [Compound 18, 1-(4-(5-((1-(2-Fluoroethyl)-1H-imidazol-4-yl)sulfonyl)-5H-pyrrolo[2,3-b]pyrazin-3-yl)-1H-pyrazol-1-yl)propan-2-one]: 24.6%, 13.3% and 22.6%.
The like results for `COC(=O)Cn1cc(-c2cnc3ccn(S(=O)(=O)c4cn(CCF)cn4)c3n2)cn1` [Compound 19, Methyl 2-(4-(5-((1-(2-fluoroethyl)-1H-imidazol-4-yl)sulfonyl)-5H-pyrrolo[2,3-b]pyrazin-3-yl)-1H-pyrazol-1-yl)acetate] were, in that order, 7.3%, 12% and 40.7%.
The matching figures for `CCOC(=O)Cn1cc(-c2cnc3ccn(S(=O)(=O)c4cn(CCF)cn4)c3n2)cn1` [Compound 20, Ethyl 2-(4-(5-((1-(2-fluoroethyl)-1H-imidazol-4-yl)sulfonyl)-5H-pyrrolo[2,3-b]pyrazin-3-yl)-1H-pyrazol-1-yl)acetate]: 7.2%, 5.4% and 49.6%.
In the case of `CNC(=O)Cn1cc(-c2cnc3ccn(S(=O)(=O)c4cn(CCF)cn4)c3n2)cn1` [Compound 21, 2-(4-(5-((1-(2-Fluoroethyl)-1H-imidazol-4-yl)sulfonyl)-5H-pyrrolo[2,3-b]pyrazin-3-yl)-1H-pyrazol-1-yl)-N-methylacetamide], the inhibition at 0.01 µM amounted to 12.5%, 0.1 µM produced 14.9% inhibition and the inhibition at 1 µM came out at 65.6%.
The matching figures for `CN(C)C(=O)Cn1cc(-c2cnc3ccn(S(=O)(=O)c4cn(CCF)cn4)c3n2)cn1` [Compound 22, 2-(4-(5-((1-(2-Fluoroethyl)-1H-imidazol-4-yl)sulfonyl)-5H-pyrrolo[2,3-b]pyrazin-3-yl)-1H-pyrazol-1-yl)-N,N-dimethylacetamide]: 0.4%, 2.5% and 15.3%.
The like results for `CS(=O)(=O)n1cc(-c2cnc3ccn(S(=O)(=O)c4cn(CCF)cn4)c3n2)cn1` [Compound 23, 5-((1-(2-Fluoroethyl)-1H-imidazol-4-yl)sulfonyl)-3-(1-(methylsulfonyl)-1H-pyrazol-4-yl)-5H-pyrrolo[2,3-b]pyrazine] were, in that order, 20.9%, 37.1% and 82.3%.
The like results for `O=S(=O)(c1cn(CCF)cn1)n1ccc2ncc(-c3cnn(S(=O)(=O)C4CC4)c3)nc21` [Compound 24, 3-(1-(Cyclopropylsulfonyl)-1H-pyrazol-4-yl)-5-((1-(2-fluoroethyl)-1H-imidazol-4-yl)sulfonyl)-5H-pyrrolo[2,3-b]pyrazine] were, in that order, 16.6%, 13.5% and 29.5%.
On to `COC(=O)C(C(=O)OC)n1cc(-c2cnc3ccn(S(=O)(=O)c4cn(CCF)cn4)c3n2)cn1` [Compound 25, Dimethyl 2-(4-(5-((1-(2-fluoroethyl)-1H-imidazol-4-yl)sulfonyl)-5H-pyrrolo[2,3-b]pyrazin-3-yl)-1H-pyrazol-1-yl)malonate], for which the inhibition at 0.01 µM amounted to 23.5%, the inhibition at 0.1 µM is 46.5% and testing at 1 µM gave an inhibition of 83%.
The matching figures for `CCOC(=O)C(C(=O)OCC)n1cc(-c2cnc3ccn(S(=O)(=O)c4cn(CCF)cn4)c3n2)cn1` [Compound 26, Diethyl 2-(4-(5-((1-(2-fluoroethyl)-1H-imidazol-4-yl)sulfonyl)-5H-pyrrolo[2,3-b]pyrazin-3-yl)-1H-pyrazol-1-yl)malonate]: 26.8%, 33.6% and 69%.
As to `CC(C)n1cnc(S(=O)(=O)n2ccc3ncc(-c4cn[nH]c4)nc32)c1` [Compound 30], the inhibition at 0.01 µM was 40.4%, the inhibition at 0.1 µM was 77.1% and testing at 1 µM gave an inhibition of 94.5%.
The matching figures for `CC(C)Cn1cnc(S(=O)(=O)n2ccc3ncc(-c4cn[nH]c4)nc32)c1` [Compound 31, 5-((1-Isobutyl-1H-imidazol-4-yl)sulfonyl)-3-(1H-pyrazol-4-yl)-5H-pyrrolo[2,3-b]pyrazine]: 13.9%, 19.9% and 37.1%.
The matching figures for `O=S(=O)(c1cn(C2CCCC2)cn1)n1ccc2ncc(-c3cn[nH]c3)nc21` [Compound 32, 5-((1-Cyclopentyl-1H-imidazol-4-yl)sulfonyl)-3-(1H-pyrazol-4-yl)-5H-pyrrolo[2,3-b]pyrazine]: 4.9%, 20.1% and 71.7%.
On to `CNC(=O)Cn1cnc(S(=O)(=O)n2ccc3ncc(-c4cn[nH]c4)nc32)c1` [Compound 33, 2-(4-((3-(1H-Pyrazol-4-yl)-5H-pyrrolo[2,3-b]pyrazin-5-yl)sulfonyl)-1H-imidazol-1-yl)-N-methylacetamide], for which 0.01 µM produced 19.9% inhibition, 0.1 µM produced 43.8% inhibition and the inhibition at 1 µM is 82.4%.
`O=S(=O)(c1cnn2cccnc12)n1ccc2ncc(-c3cn[nH]c3)nc21` [Compound 34, 3-(1H-Pyrazol-4-yl)-5-(pyrazolo[1,5-a]pyrimidin-3-ylsulfonyl)-5H-pyrrolo[2,3-b]pyrazine]: the inhibition at 0.1 µM amounted to 26.4% and testing at 1 µM gave an inhibition of 73.9%.

The record behind these values is article PMC6017193, “Structure-Based Discovery of a Series of 5H-Pyrrolo[2,3-b]pyrazine FGFR Kinase Inhibitors” (Molecules : A Journal of Synthetic Chemistry and Natural …, 2018).
